# Measured values published in US11214594B2, “Antimicrobial peptide having synergistic antibacterial effect with antibiotics on multidrug resistant bacteria, and use thereof” (priority 2016, dated 2022).
# Read-outs that look alike come from different tables or passages of the source. Where a SMILES comes first, the peptide text is derived from it.
# Legend:
# MDREC 1229 [1] = experiment: MIC of antibiotic during combined treatment with antimicrobial peptide; type: cell-based, Escherichia coli
# Method in brief: (§1)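 Strains in MH medium at 2×10^6 CFU/ml were mixed with peptide diluted stepwise (2:1) from its MIC, then antibiotic dilutions in MH medium were added to give the antibiotic MIC. The reversed set-up, peptide titrated against fixed antibiotic, gave the peptide MIC.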
# E. coli [2] = experiment: as above; type: cell-based, Escherichia coli; details: for Antibiotic MIC, Erythromycin / Antibiotic MIC, Linezolid / Antibiotic MIC, Vancomycin: E. coli
# Method in brief: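 Checkerboard-type MIC of peptide–antibiotic mixtures in MH medium: the antibiotic was serially diluted in MH medium and added to wells, then the reversed arrangement was also tested.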
# S. epidermidis = experiment: microbe, parasite or virus in culture; type: cell-based, Staphylococcus epidermidis
# Method in brief: (§2)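 Broth microdilution in MH medium: strains diluted to 2×10^6 CFU were mixed with equal volumes of twofold serial peptide dilutions in MH medium. MIC was taken as the lowest peptide concentration preventing bacterial growth.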
# MDREC 1229 [3] = type: cell-based, Escherichia coli
# Method in brief: as §1
# E. coli [4] = type: cell-based, Escherichia coli; details: E. coli
# Method in brief: as §1
# MDRST 8009 = type: cell-based, Salmonella typhimurium; details: agent alone
# Method in brief: as §2
# [5] = peptide treatment concentration 4 μg/ml
# [6] = peptide treatment concentration 6 μg/ml
# [7] = peptide treatment concentration 8 μg/ml
# [8] = peptide treatment concentration 16 μg/ml
# [9] = peptide treatment concentration 32 μg/ml
# [10] = peptide treatment concentration 64 μg/ml
smiles,measurement,setting,value
"CC[C@H](C)[C@H](NC(=O)[C@H](CCCCN)NC(=O)[C@H](Cc1c[nH]c2ccccc12)NC(=O)[C@@H](N)CCCNC(=N)N)C(=O)N[C@@H](Cc1ccccc1)C(=O)N[C@@H](CCCCN)C(=O)N[C@@H](CCCCN)C(=O)N[C@H](C(=O)N1CCC[C@H]1C(=O)N[C@@H](CCCCN)C(=O)N[C@@H](Cc1ccccc1)C(=O)N[C@@H](CC(C)C)C(=O)N[C@@H](Cc1c[nH]cn1)C(=O)N[C@@H](CCC(=O)O)C(=O)N[C@@H](C)C(=O)N[C@@H](CCCCN)C(=O)N[C@@H](CCCCN)C(=O)N[C@@H](Cc1c[nH]c2ccccc12)C(N)=O)[C@@H](C)CC [PapMA-14, RWK IFK KIP KFL HEA KKW-NH2] (H-RWKIFKKIPKFLHEAKKW-NH2; N-terminus assumed)","Antibiotic MIC, Erythromycin",MDREC 1229 [1]; [5],8 µg/mL
same,"Antibiotic MIC, Linezolid",MDREC 1229 [1]; [5],32 µg/mL
same,"Antibiotic MIC, Vancomycin",MDREC 1229 [1]; [5],128 µg/mL
same,"Antibiotic MIC, Erythromycin",MDREC 1229 [1]; [6],4 µg/mL
same,"Antibiotic MIC, Linezolid",MDREC 1229 [1]; [6],16 µg/mL
same,"Antibiotic MIC, Vancomycin",MDREC 1229 [1]; [6],32 µg/mL
same,"Antibiotic MIC, Erythromycin",MDREC 1229 [1]; [7],1 µg/mL
same,"Antibiotic MIC, Linezolid",MDREC 1229 [1]; [7],16 µg/mL
same,"Antibiotic MIC, Vancomycin",MDREC 1229 [1]; [7],8 µg/mL
same,"Antibiotic MIC, Erythromycin",MDREC 1229 [1]; [8],0 µg/mL
same,"Antibiotic MIC, Linezolid",MDREC 1229 [1]; [8],0 µg/mL
same,"Antibiotic MIC, Vancomycin",MDREC 1229 [1]; [8],0 µg/mL
same,"Antibiotic MIC, Erythromycin",MDREC 1229 [1]; [9],0 µg/mL
same,"Antibiotic MIC, Linezolid",MDREC 1229 [1]; [9],0 µg/mL
same,"Antibiotic MIC, Vancomycin",MDREC 1229 [1]; [9],0 µg/mL
same,"Antibiotic MIC, Erythromycin",MDREC 1229 [1]; [10],0 µg/mL
same,"Antibiotic MIC, Linezolid",MDREC 1229 [1]; [10],0 µg/mL
same,"Antibiotic MIC, Vancomycin",MDREC 1229 [1]; [10],0 µg/mL
same,Synergistic effect of antibacterial activity with existing antibiotics compared with PapMA-1,E. coli [2]; E. coli and MDREC1229,higher level than the PapMA-1 peptide
same,"Antibiotic MIC, Erythromycin",E. coli [2]; erythromycin combined with peptide at 1 μg/ml,128 µg/mL
same,"Antibiotic MIC, Erythromycin",E. coli [2]; erythromycin combined with peptide at 2 μg/ml,32 µg/mL
same,"Antibiotic MIC, Erythromycin",E. coli [2]; erythromycin combined with peptide at 4 μg/ml,2 µg/mL
same,"Antibiotic MIC, Erythromycin",E. coli [2]; erythromycin combined with peptide at 6 μg/ml,1 µg/mL
same,"Antibiotic MIC, Erythromycin",E. coli [2]; erythromycin combined with peptide at 8 μg/ml,0 µg/mL
same,"Antibiotic MIC, Erythromycin",E. coli [2]; erythromycin combined with peptide at 16 μg/ml,0 µg/mL
same,"Antibiotic MIC, Erythromycin",E. coli [2]; erythromycin combined with peptide at 32 μg/ml,0 µg/mL
same,"Antibiotic MIC, Erythromycin",E. coli [2]; erythromycin combined with peptide at 64 μg/ml,0 µg/mL
same,"Antibiotic MIC, Linezolid",E. coli [2]; linezolid combined with peptide at 1 μg/ml,>128 µg/mL
same,"Antibiotic MIC, Linezolid",E. coli [2]; linezolid combined with peptide at 2 μg/ml,128 µg/mL
same,"Antibiotic MIC, Linezolid",E. coli [2]; linezolid combined with peptide at 4 μg/ml,8 µg/mL
same,"Antibiotic MIC, Linezolid",E. coli [2]; linezolid combined with peptide at 6 μg/ml,2 µg/mL
same,"Antibiotic MIC, Linezolid",E. coli [2]; linezolid combined with peptide at 8 μg/ml,0 µg/mL
same,"Antibiotic MIC, Linezolid",E. coli [2]; linezolid combined with peptide at 16 μg/ml,0 µg/mL
same,"Antibiotic MIC, Linezolid",E. coli [2]; linezolid combined with peptide at 32 μg/ml,0 µg/mL
same,"Antibiotic MIC, Linezolid",E. coli [2]; linezolid combined with peptide at 64 μg/ml,0 µg/mL
same,"Antibiotic MIC, Vancomycin",E. coli [2]; vancomycin combined with peptide at 1 μg/ml,>128 µg/mL
same,"Antibiotic MIC, Vancomycin",E. coli [2]; vancomycin combined with peptide at 2 μg/ml,128 µg/mL
same,"Antibiotic MIC, Vancomycin",E. coli [2]; vancomycin combined with peptide at 4 μg/ml,16 µg/mL
same,"Antibiotic MIC, Vancomycin",E. coli [2]; vancomycin combined with peptide at 6 μg/ml,8 µg/mL
same,"Antibiotic MIC, Vancomycin",E. coli [2]; vancomycin combined with peptide at 8 μg/ml,0 µg/mL
same,"Antibiotic MIC, Vancomycin",E. coli [2]; vancomycin combined with peptide at 16 μg/ml,0 µg/mL
same,"Antibiotic MIC, Vancomycin",E. coli [2]; vancomycin combined with peptide at 32 μg/ml,0 µg/mL
same,"Antibiotic MIC, Vancomycin",E. coli [2]; vancomycin combined with peptide at 64 μg/ml,0 µg/mL
same,Minimal inhibitory concentration MIC,S. epidermidis,>128 µg/mL
same,Peptide MIC during treatment with antibiotic,MDREC 1229 [3]; erythromycin 32 μg/ml (Conc./MIC 1/8),2 µg/mL
same,Peptide MIC during treatment with antibiotic,MDREC 1229 [3]; erythromycin 64 μg/ml (Conc./MIC 1/4),2 µg/mL
same,Peptide MIC during treatment with antibiotic,MDREC 1229 [3]; erythromycin […] (Conc./MIC 1),0 µg/mL
same,Peptide MIC during treatment with antibiotic,MDREC 1229 [3]; erythromycin […] (Conc./MIC 1/2),1 µg/mL
same,Peptide MIC during treatment with antibiotic,MDREC 1229 [3]; linezolid 64 μg/ml (Conc./MIC 1/8),4 µg/mL
same,Peptide MIC during treatment with antibiotic,MDREC 1229 [3]; linezolid 512 μg/ml (Conc./MIC 1),0 µg/mL
same,Peptide MIC during treatment with antibiotic,MDREC 1229 [3]; linezolid […] (Conc./MIC 1/2),1 µg/mL
same,Peptide MIC during treatment with antibiotic,MDREC 1229 [3]; linezolid […] (Conc./MIC 1/4),2 µg/mL
same,Peptide MIC during treatment with antibiotic,MDREC 1229 [3]; vancomycin 512 μg/ml (Conc./MIC 1/2),2 µg/mL
same,Peptide MIC during treatment with antibiotic,MDREC 1229 [3]; vancomycin 1024 μg/ml (Conc./MIC 1),1 µg/mL
same,Peptide MIC during treatment with antibiotic,MDREC 1229 [3]; vancomycin […] (Conc./MIC 1/4),4 µg/mL
same,Peptide MIC during treatment with antibiotic,MDREC 1229 [3]; vancomycin […] (Conc./MIC 1/8),4 µg/mL
same,Peptide MIC,E. coli [4]; with Erythromycin […] (Conc./MIC 1),0 µg/mL
same,Peptide MIC,E. coli [4]; with Linezolid […] (Conc./MIC 1),0 µg/mL
same,Peptide MIC,E. coli [4]; with Vancomycin 1024 μg/ml (Conc./MIC 1),0 µg/mL
same,Minimal inhibitory concentration MIC,MDRST 8009,32 µg/mL
